Patent US20090209536A1, “AMINOQUINAZOLINE CANNABINOID RECEPTOR MODULATORS FOR TREATMENT OF DISEASE” (KALYPSYS, INC., priority 2007, published 2009)
Read-outs that look alike come from different tables or passages of the source.

Assays:
[1] = target: T1, human cannabinoid receptor type 2 (Homo sapiens, UniProt P34972); assay: Human CB2 Radioligand Binding Assay; conditions: membranes from stably transfected CHO CB2 cells
T1 construct: expressed in transfected cells; membrane preparation
Procedure, shortened: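 Test compounds (10 uM final, or dose-response) competed with [3H]CP-55,940, used at the Kd determined per membrane lot, for binding to stable human CB2-CHO membranes over 90 min at 30° C in pH 7.4 Tris/EGTA/MgCl2/BSA buffer. GF/C filtration then scintillation counting; 100 nM CP-55,940 defined 100% efficacy.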

[2] = target: T2, human cannabinoid receptor type 1 (Homo sapiens, UniProt P21554); assay: Human CB1 Radioligand Binding Assay (basis of selectivity, CB2 vs. CB1); conditions: CB1: HEK 293 EBNA cells expressing human CB1; CB2: CHO CB2 membranes
T2 construct: purchased Perkin Elmer RBHCB1M; host or cells: HEK 293 EBNA cells
T2 sequence (P21554 whole entry): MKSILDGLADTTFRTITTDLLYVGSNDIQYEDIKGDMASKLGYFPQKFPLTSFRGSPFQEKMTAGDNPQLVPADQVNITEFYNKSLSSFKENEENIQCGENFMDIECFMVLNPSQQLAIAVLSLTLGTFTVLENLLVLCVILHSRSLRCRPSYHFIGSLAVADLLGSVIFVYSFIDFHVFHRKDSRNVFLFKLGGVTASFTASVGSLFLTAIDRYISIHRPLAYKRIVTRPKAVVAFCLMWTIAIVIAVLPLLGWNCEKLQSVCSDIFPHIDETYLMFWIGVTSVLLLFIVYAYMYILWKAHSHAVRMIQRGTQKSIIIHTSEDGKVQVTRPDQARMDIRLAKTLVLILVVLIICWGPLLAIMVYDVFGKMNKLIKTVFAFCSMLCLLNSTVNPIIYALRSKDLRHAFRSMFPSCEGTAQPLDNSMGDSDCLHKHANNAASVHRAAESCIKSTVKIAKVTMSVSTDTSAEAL
Description: 2. Human CB1 Radioligand Binding Assay
The incubation buffer was composed of 50 mM Tris-HCl pH 7.4, 2.5 mM EDTA, 5 mM MgCl2, 5.0 mg/ml fatty acid free BSA and the wash buffer was composed of 50 mM Tris-HCl pH 7.4, 2.5 mM EDTA, 5 mM MgCl2, 0.5 mg/ml fatty acid free BSA.

[3] = competition with [3H] CP-55,940, read-out: CB2 Ligand Binding Asssay EC50

T1 sequence (P34972 whole entry): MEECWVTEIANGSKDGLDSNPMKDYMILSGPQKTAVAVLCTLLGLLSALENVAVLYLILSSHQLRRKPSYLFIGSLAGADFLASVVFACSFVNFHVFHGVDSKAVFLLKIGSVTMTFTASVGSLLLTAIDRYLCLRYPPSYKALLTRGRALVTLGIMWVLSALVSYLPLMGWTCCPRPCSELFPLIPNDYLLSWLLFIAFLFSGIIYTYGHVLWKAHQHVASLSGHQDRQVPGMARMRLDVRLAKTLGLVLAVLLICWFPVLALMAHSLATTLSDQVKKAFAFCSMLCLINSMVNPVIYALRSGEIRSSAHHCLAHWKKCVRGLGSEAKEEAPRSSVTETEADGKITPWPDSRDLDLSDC

With `CCOC(=O)N1CCN(c2nc(-c3ccccc3Cl)nc3cc(C(=O)NC)ccc23)CC1` [Example 321, Ethyl 4-(2-(2-chlorophenyl)-7-(methylcarbamoyl)quinazolin-4-yl)piperazine-1-carboxylate] the EC50 [1, 3] was greater than 1 µM and the “Selectivity, CB2 vs. CB1” value [2] was “− (− indicates ≦ 10−fold)”.

With `COC(=O)c1ccc2c(N3CCN(C(C)=O)CC3)nc(-c3ccccc3Cl)nc2c1` [Example 322, Methyl 4-(4-acetylpiperazin-1-yl)-2-(2-chlorophenyl)quinazoline-7-carboxylate] the EC50 ([1]; CB2 Ligand Binding Asssay EC50, competition with [3H] CP-55,940) was greater than 1 µM and the “Selectivity, CB2 vs. CB1” value [2] was “− (− indicates ≦ 10−fold)”.

`CCN(CC)C(=O)c1ccc2c(N3CCN(C(C)=O)CC3)nc(-c3ccccc3Cl)nc2c1` [Example 323, 4-(4-Acetylpiperazin-1-yl)-2-(2-chlorophenyl)-N,N-diethylquinazoline-7-carboxamide] was tested, and the EC50 [1, 3] was greater than 1 µM and the “Selectivity, CB2 vs. CB1” value [2] was “− (− indicates ≦ 10−fold)”.

In the case of `CC(=O)N1CCN(c2nc(-c3ccccc3Cl)nc3cc(C(=O)N4CCCCC4)ccc23)CC1` [Example 324, 1-(4-(2-(2-Chlorophenyl)-7-(piperidine-1-carbonyl)quinazolin-4-yl)piperazin-1-yl)ethanone], the EC50 [1, 3] is reported as greater than 1 µM and the “Selectivity, CB2 vs. CB1” value [2] is reported as “− (− indicates ≦ 10−fold)”.

`COc1ccc(CNC(=O)c2ccc3c(N4CCN(C(C)=O)CC4)nc(-c4ccccc4Cl)nc3c2)cc1` [Example 325, 4-(4-Acetylpiperazin-1-yl)-2-(2-chlorophenyl)-N-(4-methoxybenzyl)quinazoline-7-carboxamide] was tested, and the EC50 [1, 3] was greater than 1 µM and the “Selectivity, CB2 vs. CB1” value [2] was “− (− indicates ≦ 10−fold)”.

In the case of `COC(=O)c1ccc2nc(-c3ccccc3Cl)nc(Nc3cccc(OC(F)(F)F)c3)c2c1` [Example 326, Methyl 2-(2-chlorophenyl)-4-(3-(trifluoromethoxy)phenylamino)quinazoline-6-carboxylate], the EC50 [1, 3] is reported as greater than 1 µM and the “Selectivity, CB2 vs. CB1” value [2] is reported as “− (− indicates ≦ 10−fold)”.

In the case of `COC(=O)c1ccc2nc(-c3ccccc3Cl)nc(Nc3cccc(OC(C)C)c3)c2c1` [Example 327, Methyl 2-(2-chlorophenyl)-4-(3-isopropoxyphenylamino)quinazoline-6-carboxylate], the EC50 [1, 3] is reported as greater than 1 µM and the “Selectivity, CB2 vs. CB1” value [2] is reported as “− (− indicates ≦ 10−fold)”.

In the case of `COC(=O)c1ccc2nc(-c3ccccc3Cl)nc(Nc3cc(OC)cc(OC)c3)c2c1` [Example 328, Methyl 2-(2-chlorophenyl)-4-(3,5-dimethoxyphenylamino)quinazoline-6-carboxylate], the EC50 [1, 3] is reported as greater than 1 µM and the “Selectivity, CB2 vs. CB1” value [2] is reported as “− (− indicates ≦ 10−fold)”.

`COC(=O)c1ccc2nc(-c3ccccc3Cl)nc(N3CCc4cc(OC)ccc43)c2c1` [Example 330, Methyl 2-(2-chlorophenyl)-4-(5-methoxyindolin-1-yl)quinazoline-6-carboxylate] was tested, and the EC50 [1, 3] was greater than 1 µM and the “Selectivity, CB2 vs. CB1” value [2] was “− (− indicates ≦ 10−fold)”.

In the case of `Cc1ccccc1Nc1nc(-c2ccccc2Cl)nc2ccccc12` [Example 331, 2-(2-Chlorophenyl)-N-o-tolylquinazolin-4-amine], the EC50 [1, 3] is reported as greater than 1 µM and the “Selectivity, CB2 vs. CB1” value [2] is reported as “− (− indicates ≦ 10−fold)”.

In the case of `CCOc1ccc(Nc2nc(-c3ccccc3Cl)nc3ccccc23)cc1` [Example 332, 2-(2-Chlorophenyl)-N-(4-ethoxyphenyl)quinazolin-4-amine], the EC50 [1, 3] is reported as greater than 1 µM and the “Selectivity, CB2 vs. CB1” value [2] is reported as “− (− indicates ≦ 10−fold)”.

With `CN1CCCN(c2nc(-c3ccccc3Cl)nc3ccccc23)CC1` [Example 333, 2-(2-Chlorophenyl)-4-(4-methyl-1,4-diazepan-1-yl)quinazoline] the EC50 [1, 3] was less than 1 µM and the “Selectivity, CB2 vs. CB1” value [2] was “− (− indicates ≦ 10−fold)”.

For `CC(=O)N1CCCN(c2nc(-c3ccccc3Cl)nc3ccccc23)CC1` [Example 334, 1-(4-(2-(2-Chlorophenyl)quinazolin-4-yl)-1,4-diazepan-1-yl)ethanone], the EC50 [1, 3] was less than 1 µM and the “Selectivity, CB2 vs. CB1” value [2] was “− (− indicates ≦ 10−fold)”.

For `COc1ccc(Cc2nc(N3CCCCC3)c3ccccc3n2)cc1OC` [Example 335, 2-(3,4-Dimethoxybenzyl)-4-(piperidin-1-yl)quinazoline], the EC50 [1, 3] was greater than 1 µM and the “Selectivity, CB2 vs. CB1” value [2] was “− (− indicates ≦ 10−fold)”.

For `COc1ccc(Cc2nc(N3CCCCC3)c3ccccc3n2)cc1` [Example 336, 2-(4-Methoxybenzyl)-4-(piperidin-1-yl)quinazoline], the EC50 [1, 3] was greater than 1 µM and the “Selectivity, CB2 vs. CB1” value [2] was “+ (+ indicates > 10−fold)”.

`Cc1ccccc1Cc1nc(N2CCN(C)CC2)c2ccccc2n1` [Example 337, 2-(2-Methylbenzyl)-4-(4-methylpiperazin-1-yl)quinazoline] was tested, and the EC50 [1, 3] was less than 1 µM and the “Selectivity, CB2 vs. CB1” value [2] was “− (− indicates ≦ 10−fold)”.

With `CCOC(=O)N1CCN(c2nc(C(C)c3ccccc3C)nc3ccccc23)CC1` (stereo not drawn) [Example 338, Ethyl 4-(2-(1-o-tolylethyl)quinazolin-4-yl)piperazine-1-carboxylate] the EC50 [1, 3] was greater than 1 µM and the “Selectivity, CB2 vs. CB1” value [2] was “+ (+ indicates > 10−fold)”.

With `c1ccc(Cc2nc(N3CCCCC3)c3ccccc3n2)cc1` [Example 339, 2-Benzyl-4-(piperidin-1-yl)quinazoline] the EC50 [1, 3] was greater than 1 µM and the “Selectivity, CB2 vs. CB1” value [2] was “− (− indicates ≦ 10−fold)”.

`CCOC(=O)N1CCN(c2nc(Cc3ccccc3C)nc3ccccc23)CC1` [Example 340, Ethyl 4-(2-(2-methylbenzyl)quinazolin-4-yl)piperazine-1-carboxylate] was tested, and the EC50 [1, 3] was greater than 1 µM and the “Selectivity, CB2 vs. CB1” value [2] was “+ (+ indicates > 10−fold)”.

`Cc1ccccc1Cc1nc(N2CCCC2)c2ccccc2n1` [Example 341, 2-(2-Methylbenzyl)-4-(pyrrolidin-1-yl)quinazoline] was tested, and the EC50 [1, 3] was less than 1 µM and the “Selectivity, CB2 vs. CB1” value [2] was “− (− indicates ≦ 10−fold)”.

For `Cc1ccccc1C(C)c1nc(N2CCCC2)c2ccccc2n1` (stereo not drawn) [Example 342, 4-(Pyrrolidin-1-yl)-2-(1-o-tolylethyl)quinazoline], the EC50 [1, 3] was greater than 1 µM and the “Selectivity, CB2 vs. CB1” value [2] was “− (− indicates ≦ 10−fold)”.

In the case of `CCOC(=O)N1CCN(c2nc(-c3ccccc3Cl)nc3ccc([N+](=O)[O-])cc23)CC1` [Example 343, Ethyl 4-(2-(2-chlorophenyl)-6-nitroquinazolin-4-yl)piperazine-1-carboxylate], the EC50 [1, 3] is reported as greater than 1 µM and the “Selectivity, CB2 vs. CB1” value [2] is reported as “− (− indicates ≦ 10−fold)”.

With `CC(=O)N1CCN(c2nc(C(C)c3ccccc3C)nc3ccccc23)CC1` (stereo not drawn) [Example 344, 1-(4-(2-(1-o-Tolylethyl)quinazolin-4-yl)piperazin-1-yl)ethanone] the EC50 [1, 3] was less than 1 µM and the “Selectivity, CB2 vs. CB1” value [2] was “+ (+ indicates > 10−fold)”.

For `CCOC(=O)N1CCN(c2nc(Cc3cccc4ccccc34)nc3ccccc23)CC1` [Example 345, Ethyl 4-(2-(naphthalen-1-ylmethyl)quinazolin-4-yl)piperazine-1-carboxylate], the EC50 [1, 3] was less than 1 µM and the “Selectivity, CB2 vs. CB1” value [2] was “+ (+ indicates > 10−fold)”.
